Data reported in paper PMC8186431, “Synthesis and biological evaluation of thiazolidinedione derivatives with high ligand efficiency to P. aeruginosa PhzS” (Journal of Enzyme Inhibition and Medicinal Chemistry, 2021).
“Also recorded” adds a separate entry of the source.

Tests used:
[1] = target: PhzS from P. aeruginosa; set-up: method as in PMID 32772556; details: Kd value calculated by microscale thermophoresis; cited from earlier work
[2] = target: T1, PaPhzS (Pseudomonas aeruginosa, UniProt Q9HWG9); experiment: Compounds' affinity calculation by TSA (fraction of unfolded protein, DSFit software); format: binding, P. aeruginosa; details: for BEI (DSFit software): BEI: (pKd/MW)×1000, from DSFit Kd; for Kd: Kd (DSFit software), TSA, fraction of unfolded PaPhzS at 43 °C, PaPhzS 5 µM, ligand 3.12 to 200 µM; for LE (DSFit software): LE: 1.4*pKd/HA, from DSFit Kd
T1 construct: implied by pET28a and the HisTrap purification; made in house; host or cells: E. coli Rosetta (DE3)
T1 sequence (Q9HWG9 whole entry): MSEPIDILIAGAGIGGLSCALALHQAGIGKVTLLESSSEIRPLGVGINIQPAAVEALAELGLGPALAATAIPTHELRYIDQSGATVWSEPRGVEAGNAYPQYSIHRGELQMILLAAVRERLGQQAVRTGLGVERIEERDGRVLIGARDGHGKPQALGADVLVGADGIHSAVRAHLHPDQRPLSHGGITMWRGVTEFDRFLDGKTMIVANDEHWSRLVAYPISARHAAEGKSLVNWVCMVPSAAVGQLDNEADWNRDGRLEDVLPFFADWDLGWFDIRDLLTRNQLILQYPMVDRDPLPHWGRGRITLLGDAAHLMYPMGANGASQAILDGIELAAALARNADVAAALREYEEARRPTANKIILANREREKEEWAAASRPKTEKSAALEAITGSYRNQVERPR
Protocol: The effect of ligand’s concentration (ranging from 3.12 to 200 µM) over the PaPhzS Tm (5 µM final concentration) was evaluated using the same parameters described in section (2.2.2). […] The ΔCp value (0.69) required for this calculation was predicted by hydrophobic surface area-based method available on http://www.ibi.vu.nl/programs/bicepwww/. Briefly, the heat capacity (C) was calculated at two temperatures: 25 °C (before PhzS unfolding [T1]) and 50 °C (after PzhS unfolding [T2]) using Equation (2). C = 332.66 ± 18.9 X (273.15 − T) + 52089 ± 1353 (2) [drawing 2] where T stands for temperature in Kelvin. Therefore T1 = 298.15 K, T2 = 323.15 K.
Bai and co-workers devised an elegant workaround that limitation, which relies on the percentage of unfolded protein at a fixed temperature. […] According to Bai and co-workers (2019) Kd values close to the protein concentration (5 µM) or lower should be taken with scepticism. […] As these Kd values were obtained at a temperature higher than the physiologic one, we decided to employ an orthogonal assay to evaluate the compounds’ affinity. In order to achieve this goal, PaPhzS was labelled with FITC and the effects of different concentration of each inhibitor on the covalently modified PaPhzS was monitored at 25 °C (Figure 5).

[3] = target: T2, PhzS from P. aeruginosa (PaPhzS) (Pseudomonas aeruginosa, UniProt Q9HWG9); experiment: Thermal shift assay (TSA) screening of thiazolidinedione derivatives; format: binding; details: different concentrations (3.12–100.0 µM)
T2 construct: implied by pET28a and the HisTrap purification; made in house; host or cells: E. coli Rosetta (DE3)
T2 sequence (Q9HWG9 whole entry): as above
Protocol: TSA assays were performed on Applied Biosystems 7500 RT-PCR (Applied Biosystems, Foster City, CA USA), fitted with custom filter sets. All assays were carried out in triplicate on a 96-well PCR plate (PCR plates 96 well BioRad®), manually sealed with transparent capping strips (Flatcap strips BioRad®). The plates were centrifuged for 2 min, 2000 rpm, at 25 °C and then the fluorescence of SYPRO^TM orange (S6650) was monitored (excitation wavelength= 492 nm and emission wavelength= 610 nm), while the plate was heated from 25 to 85 °C, in increments of 1 °C per minute.
The TSA conditions employed in this work were previously optimised. Briefly, 5 µl of PaPhzS (5 µM final concentration), 1 µl of SYPRO^TM orange (5X), 13 µl of assay buffer (50 mM potassium phosphate, 300 mM NaCl, pH 8), and 1 µl DMSO (5% v/v), as a negative control, or the putative inhibitor (diluted in DMSO) were added to each well. All experiments were carried out in triplicate
Raw fluorescence data were recorded within the Applied Biosystems 7500 Software v2.0, and then exported to NAMI[52] for Tm calculation by the first-derivative method.

[4] = target: T3, PaPhzS-FITC (Pseudomonas aeruginosa, UniProt Q9HWG9); experiment: Affinity to covalently modified PaPhzS (FITC fluorescence); format: binding, P. aeruginosa; details: for BEI (FITC): BEI: (pKd/MW)×1000, from PaPhzS-FITC Kd; for LE (FITC): LE: 1.4*pKd/HA, from PaPhzS-FITC Kd; for affinity to PaPhzS, in words: PaPhzS-FITC assay
T3 construct: implied by pET28a and the HisTrap purification); FITC (chemical covalent label, not a peptide; made in house; host or cells: E. coli Rosetta (DE3)
T3 sequence (Q9HWG9 whole entry): as above
Protocol: PaPhzS (2 mg/mL) was incubated with fluorescein-5-isothiocyanate (FITC) dye (6 mg/mL) containing 50 mM HEPES (pH 8.0) for 2 h, at 25 °C. Then, the solution was loaded on a Hi-Trap HP desalting column (GE Healthcare), previously equilibrated with 50 mM HEPES buffer (pH 8) and 2 CV of the same buffer were injected. The absorbance of the collected fractions was monitored at 280 nm and 490 nm and those with a molar ratio ranging from 0.3 and 1.0[55] were employed for the Kd calculation experiments, as follows: The fluorescence of PaPhzS-FITC, at 25 °C, using in a real-time thermocycler (AppliedBiosystem7500) equipped with the FAN filter (excitation 498 nm and emission 530 nm wavelengths) for 10 min in the presence of different concentrations of each compound (3.12–100.0 µM). The Raw fluorescence data, recorded within the Applied Biosystems 7500 Software v2.0, was employed for non-linear regression analysis (three parameters) (Equation 1), as available in GraphPad Prism 8.0 software (GraphPadV® Software, San Diego, CA, USA, www.graphpad.com). All experiments were carried out in triplicate using 96-well PCR plate (PCR plates 96 well BioRad®), manually sealed with transparent capping strips (Flatcap strips BioRad®).

| SMILES | melting point [°C] | BEI (DSFit software) [2] | Kd [2] [µM] | LE (DSFit software) [2] | concentration-response profile of ΔTm [3] | Kd [4] [µM] | affinity to PaPhzS, in words [4] | other results |
| --- | --- | --- | --- | --- | --- | --- | --- | --- |
| O=C1S/C(=C\c2cc(Cl)ccc2O)C(=O)N1Cc1cccc(Cl)c1 | 201 to 202 | – | – | – | – | – | – | – |
| Cc1ccc(/C=C2\SC(=O)NC2=O)cc1Br | 196 to 197 | – | – | – | – | – | – | – |
| O=C1NC(=O)/C(=C/c2cncc3ccccc23)S1 | 118 to 119.5 | – | – | – | – | – | – | – |
| O=C1NC(=O)/C(=C/c2c(O)ccc3ccccc23)S1 | 194 to 195 | – | – | – | – | – | – | – |
| COc1ccc(C(=O)CN2C(=O)S/C(=C\c3ccc(C)cc3)C2=O)cc1 | 174 to 176 | – | – | – | – | – | – | – |
| O=C1NC(=O)/C(=C\c2ccc(OCc3nc4ccccc4c(=O)n3-c3ccccc3)cc2)S1 [A, (E)-5–(4-((4-oxo-3-phenyl-3,4-dihydroquinazolin-2-yl)methoxy)benzylidene)thiazolidine-2,4-dione, reference compound] | – | 11.0 | 9.3 | 0.21 | – | – | – | Kd [1]: 18 µM |
| O=C1S/C(=C\c2c(Cl)cccc2Cl)C(=O)N1Cc1cccc(Cl)c1 [Compound 3, (Z)-3–(3-chlorobenzyl)-5–(2,6-dichlorobenzylidene)thiazolidine-2,4-dione] | 110 to 111 | – | – | – | – | – | – | – |
| O=C1NC(=O)C(=Cc2cc(Cl)cc(Br)c2O)S1 [Compound 15] | – | 13.3 | 37.2 | 0.36 | clear concentration-response profile | 166 ± 0.5 | low affinity; also recorded: reduced affinity | BEI (FITC) [4]: 11.4; LE (FITC) [4]: 0.31 |
| O=C1NC(=O)/C(=C/c2cc(Cl)ccc2O)S1 [Compound 16] | – | 21.0 | 4.2 | 0.47 | clear concentration-response profile | 6.18 ± 0.2 | low micromolar ligands | BEI (FITC) [4]: 20.42; BEI (FITC) ([4]; listed as Mol 16): 20.4; LE (FITC) ([4]; listed as Mol 16): 0.45 |
| COc1ccc(/C=C2\SC(=O)NC2=O)c(Br)c1O [Compound 20, (Z) 5–(2-bromo-3-hydroxy-4-methoxybenzylidene)thiazolidine-2,4-dione] | 245 | 15.0 | 10.5 | 0.38 | clear concentration-response profile | 3.3 ± 0.3 | low micromolar ligands | BEI (FITC) ([4]; listed as Mol 20): 16.6; LE (FITC) ([4]; listed as Mol 20): 0.42 |
| COc1cc(OC)c(OC)cc1/C=C1\SC(=O)NC1=O [Compound 28, (Z-5–(2,4,5-trimethoxybenzylidene)thiazolidine-2,4-dione)] | 158 to 160 | – | – | – | clear concentration-response profile | – | – | – |
| COCn1cc(/C=C2\SC(=O)NC2=O)c2ccccc21 [Compound 33] | – | 14.9 | 50 | 0.30 | clear concentration-response profile | 84.2 ± 0.2 | low affinity | BEI (FITC) [4]: 14.1; LE (FITC) [4]: 0.28 |
| O=C1NC(=O)/C(=C/C=C/c2ccccc2[N+](=O)[O-])S1 [Compound 38, (Z)-5-((E)-3–(2-nitrophenyl)allylidene)thiazolidine-2,4-dione] | 119 to 120 | – | – | – | small variation in ΔTm | – | – | – |
